Laboratory results reported in US20260151451A1, “CYCLIC PEPTIDE DERIVATIVE COMPOSITION FOR TREATING OR PREVENTING CENTRAL NERVOUS SYSTEM INJURY/DISEASE” (DKS Co. Ltd., priority 2022, published 2026).
Several values for one entry are separate records, joined by “and”; a condition that tells them apart may be missing. Identical values can stand only once. Entries after “also recorded” stand apart in the source; their conditions may differ.

Columns and labels:
[1] = system: transient focal cerebral ischemia model rat; test: Cerebral infarct volume in transient focal cerebral ischemia model rat (Example 33; test substance given immediately after MCA recanalization); assay type: in vivo; settings: for Cerebral infarct volume (mm^3): tail vein, brain extracted 24 hours after MCA occlusion, mean ± S.E. of 10 rats; for Individual data of the cerebral infarct volume (mm^3): individual animals
Description: The activity of the compound of the present disclosure was evaluated according to the following procedure.
Compound 9 (aqueous solution (50 mg/mL) prepared by dissolving a white powder in a saturated NaHCO3 solution)
Edaravone (trade name: Radicut (registered trademark) Mitsubishi Tanabe Pharma Corporation) Vehicle
Japanese Pharmacopoeia physiological saline (hereinafter, physiological saline) (Otsuka Pharmaceutical Factory, Inc.)
Rat (strain: Crl: CD (SD)) (THE JACKSON LABORATORY JAPAN, INC.)
• Intravenous administration
Using a syringe (1 mL, Terumo Corporation) equipped with an injection needle (25G×5/8, Terumo Corporation), tail vein administration was performed immediately after MCA recanalization.
Using a syringe (1 mL, Terumo Corporation) equipped with an injection needle (25G×5/8, Terumo Corporation), tail vein administration was performed immediately after MCA recanalization and 30 minutes after MCA recanalization (actual result: ±0 minutes from the specified time, allowable range: ±3 minutes from the specified time).
• 0.2 mg/kg and 2 mg/kg
• (1) The received test substance was thawed and then divided into 4 brown glass bottles by 0.1 mL. • (2) The test substances divided into small portions were stored frozen (measured value: −24.4 to −22.6° C., allowable range: −35 to −10° C.) until use in preparation. • (3) One test substance divided into small portions for each day of administration was thawed, and 4.9 mL of physiological saline was added to prepare a 1 mg/mL administration solution . . . I • (4) From I, 0.5 mL was dispensed into a brown glass bottle, and 4.5 mL of physiological saline was added to prepare a 0.1 mg/mL administration solution. • (5) It was prepared before use. • (6) The remainder after administration was discarded.
(§1) The rat was fixed in a supine position under 2% isoflurane inhalation anesthesia (Lot No.: 234KAP, Mylan Inc., laughing gas:oxygen=7:3). A thermometer probe connected to a digital thermometer (TX1002, Yokogawa Meters & Instruments Corporation) was inserted into the rectum to perform thermoregulation during surgery, and changes in rectal temperature before and after surgery were monitored. As a result, since a decrease in rectal temperature was not observed in any rat, heating was not performed. The right common carotid artery, external carotid artery, and internal carotid artery were exposed, and the common carotid artery and external carotid artery were ligated with sutures. A nylon yarn (plug) No. 4 previously coated with silicon (Kulzer Japan Co., Ltd.) and cut to a length of 19 mm was inserted from the bifurcation of the external carotid artery and the internal carotid artery to occlude the right MCA. After MCA occlusion, the neck skin was sutured and released from anesthesia. Flexion of the contralateral forelimb on the occluded side was confirmed 30 minutes after MCA occlusion. Under 2% isoflurane inhalation anesthesia, the right common carotid artery, the right external carotid artery, and the right internal carotid artery were exposed again, the plug was removed 2 hours after MCA occlusion, and the blood flow of the right MCA was resumed. After the blood flow of the right MCA was resumed, ligation of the right internal carotid artery and suturing of the neck skin were performed to awaken the animal from anesthesia. Note that benzylpenicillin potassium (Lot No.: 00904, Meiji Seika Pharma Co., Ltd.) was administered intramuscularly at a dosage of 20,000 units/kg before the MCA occlusion surgery.
24 hours after MCA occlusion, the animal was decapitated under 2% isoflurane inhalation anesthesia (Lot No.: 234KAP, Mylan Inc., laughing gas:oxygen=7:3), and the whole brain was extracted to prepare a brain section having a thickness of 2 mm. Referring to Paxinos and Watson brain atlas [axinos G. and Watson C. The rat brain in stereotaxic coordinates, second edition. […]

[2] = system: transient focal cerebral ischemia model rat; test: Cerebral infarct volume in transient focal cerebral ischemia (MCA occlusion/recanalization) model rat; assay type: in vivo; settings: for Cerebral infarct volume compared with the vehicle group: Dunnett's multiple comparison test; for Cerebral infarct volume: group mean ± S.E., n=10, brain extracted 24 hours after MCA occlusion
Source text: as §1, with “248KKY, Viatris Pharmaceutical Co., Ltd.,” for “234KAP, Mylan Inc.,”
24 hours after MCA occlusion, the animal was decapitated under 2% isoflurane inhalation anesthesia (Lot No.: 248KKY, Viatris Pharmaceutical Co., Ltd., laughing gas:oxygen=7:3), and the whole brain was extracted to prepare a brain section having a thickness of 2 mm. Referring to Paxinos and Watson brain atlas [Paxinos G. and Watson C. The rat brain in stereotaxic coordinates, second edition. San Diego, New York, Boston, London, Sydney, Tokyo, Toronto: Academic Press Inc.; 1986.], the brain sections were set at positions where coronal planes of 4 mm anterior to Bregma, 2 mm anterior to Bregma, above Bregma, 2 mm posterior to Bregma, 4 mm posterior to Bregma, and 6 mm posterior to Bregma were obtained. The brain sections were immersed in a 1% (W/V) 2,3,5-triphenyltetrazolium chloride (Lot No.: M7B5587, Nacalai Tesque Inc.) solution at room temperature, stained, and photographed. From the obtained photograph, brain sections (infarction site and non-infarction site) were traced on an OHP sheet. The traced image was captured by a scanner (Seiko Epson Corporation), image analysis was performed using WinROOF2015 (MITANI CORPORATION), a cerebral infarct area was obtained as a measured value, and a cerebral infarct volume between 4 mm anterior to Bregma and 6 mm posterior to Bregma was calculated from the obtained value.
[formula] • V: Cerebral infarct volume • a: Cerebral infarct area on section of 4 mm anterior to Bregma • b: Cerebral infarct area on section of 2 mm anterior to Bregma • c: Cerebral infarct area on section of Bregma • d: Cerebral infarct area on section of 2 mm posterior to Bregma • e: Cerebral infarct area on section of 4 mm posterior to Bregma • f: Cerebral infarct area on section of 6 mm posterior to Bregma
• Calculation of cerebral infarct volume (mm^3)
The employed data were expressed as a mean±standard error.
The following combinations were performed.

Structure (SMILES) | Cerebral infarct volume (mm^3) ([1]; Compound 9 0.2 mg/kg, immediately after MCA recanalization, 2 hours MCA occlusion, 0.2 mg/kg) | Statistical difference of cerebral infarct volume from the vehicle group (Dunnett's multiple comparison test) ([1]; Compound 9 2 mg/kg i.v.) | Cerebral infarct volume (mm^3) ([1]; Compound 9 2 mg/kg, immediately after MCA recanalization, 2 hours MCA occlusion, 2 mg/kg) | Cerebral infarct reduction action: cerebral infarct volume compared with the vehicle group ([1]; Compound 9 groups, 0.2 mg/kg and 2 mg/kg i.v.) | Individual data of the cerebral infarct volume (mm^3) ([1]; Compound 9 0.2 mg/kg group (n = 10), 0.2 mg/kg) | Individual data of the cerebral infarct volume (mm^3) ([1]; Compound 9 2 mg/kg group (n = 10), 2 mg/kg) | Cerebral infarct volume compared with the vehicle group ([2]; administered 30 minutes after MCA recanalization) | Cerebral infarct volume compared with the vehicle group ([2]; administered 1 hour after MCA recanalization, p value=0.0525) | Cerebral infarct volume ([2]; 2 mg/kg administered 30 minutes after MCA reperfusion) | Cerebral infarct volume ([2]; 2 mg/kg administered 1 hour after MCA reperfusion) | Cerebral infarct volume, individual data ([2]; individual animals Nos. 202-214, administered 30 minutes after MCA reperfusion) | Cerebral infarct volume, individual data ([2]; individual animals Nos. 301-314, second Compound 9 group (head prints 30 minutes after MCA reperfusion; mean matches the 1 hour group)) | Cerebral infarct volume compared with the vehicle group (Student's t-test) ([1]; Edaravone 3 mg/kg per dose i.v., twice) | Cerebral infarct volume (mm^3) ([1]; Edaravone 3 mg/kg per dose, immediately after and 30 minutes after MCA recanalization) | Individual data of the cerebral infarct volume (mm^3) ([1]; Edaravone 3 mg/kg per dose group (n = 10)) | Cerebral infarct volume ([2]; Edaravone group 3 mg/kg) | Cerebral infarct volume, individual data ([2]; individual animals Nos. 401-414, Edaravone group)
CC[C@@]1(C)Oc2cc(ccc2O)C[C@H](NC)C(=O)N[C@@H](C(C)C)C(=O)N[C@@H]1C(=O)N[C@@H](CC(=O)O)C(=O)O [Compound 9] | 336.9±14.2 mm^3 and 336.9 mm^3 | a statistically significant difference was observed in the 2 mg/kg group | 301.8±12.8 mm^3 and 301.8 ± 12.8 ^** mm^3 and 301.8 mm^3 | all showed low values; also recorded: has an ameliorating effect on cerebral infarct after cerebrovascular disorder | 341.9 mm^3 and 350.2 mm^3 and 331.8 mm^3 and 366.5 mm^3 and 372.7 mm^3 and 219.1 mm^3 and 318.3 mm^3 and 339.3 mm^3 and 369.8 mm^3 and 359.8 mm^3 | 264.4 mm^3 and 343.3 mm^3 and 342.4 mm^3 and 374.1 mm^3 and 279.7 mm^3 and 273.1 mm^3 and 293.4 mm^3 and 251.2 mm^3 and 316.6 mm^3 and 279.6 mm^3 | ameliorating effect on cerebral infarct | improvement tendency | 250.0±20.5 mm^3 and 250.0 ± 20.5 * mm^3 and 250.0 mm^3 | 260.4±13.9 mm^3 and 260.4 mm^3 | 254.3 mm^3 and 319.8 mm^3 and 274.6 mm^3 and 210.2 mm^3 and 133.9 mm^3 and 192.3 mm^3 and 272.2 mm^3 and 296.0 mm^3 and 201.4 mm^3 and 345.5 mm^3 | 253.1 mm^3 and 243.0 mm^3 and 355.2 mm^3 and 220.7 mm^3 and 261.4 mm^3 and 250.7 mm^3 and 192.0 mm^3 and 256.3 mm^3 and 272.3 mm^3 and 299.0 mm^3 | – | – | – | – | –
CC1=NN(c2ccccc2)C(=O)C1 [Edaravone, reference compound] | – | – | – | – | – | – | – | – | – | – | – | – | showed low values, and a statistically significant difference was observed; also recorded: showed a lower value than that of the vehicle group, and a statistically significant difference was observed | 292.8±14.2 mm^3 and 292.8 ± 14.2 ^## mm^3 and 292.8 mm^3 | 248.4 mm^3 and 324.8 mm^3 and 282.1 mm^3 and 375.0 mm^3 and 308.0 mm^3 and 319.8 mm^3 and 217.2 mm^3 and 299.1 mm^3 and 253.8 mm^3 | 232.2±14.6 mm^3 and 232.2 ± 14.6 ^## mm^3 and 232.2 mm^3 | 140.7 mm^3 and 218.3 mm^3 and 221.0 mm^3 and 170.0 mm^3 and 231.1 mm^3 and 268.2 mm^3 and 268.9 mm^3 and 278.6 mm^3 and 268.4 mm^3 and 257.0 mm^3
